{
  "source": "patent US20120184023A1",
  "about": "“Method of Preparing A Glycoside Of A Mono- Or Diacylglycerol Product From A Plant Material” (HYBEN VITAL LICENS APS, priority 2006, published 2012)",
  "origin": "cited, not measured here",
  "key": {"[1]": {"system": "poly-morphonuclear monocytes", "conditions": "reported in WO 03/043613"}, "[2]": {"system": "mononuclear leukocytes", "conditions": "reported in WO 03/043613"}},
  "data": [
    {"compound": "CC/C=C\\C/C=C\\C/C=C\\CCCCCCCC(=O)OCC(CO[C@@H]1O[C@H](CO)[C@H](O)[C@H](O)[C@H]1O)OC(=O)CCCCCCC/C=C\\C/C=C\\C/C=C\\CC", "note": "(stereo partly drawn) [GOPO, 3-β-D-galactopyranosyloxy-2-(octadeca-9Z,12Z,15Z-trienoyloxy) propanyloctadeca-9Z,12Z,15Z-trienoate]", "values": [
      {"measurement": "chemiluminescence of poly-morphonuclear monocytes", "setting": "[1]", "value": "alleviating chemiluminescence"},
      {"measurement": "chemotaxis of mononuclear leukocytes", "setting": "[2]", "value": "alleviating"}
    ]}
  ]
}
